Measured values published in patent US20230248834A1, “DEGRADATION OF (EGFR) BY CONJUGATION OF EGFR INHIBITORS WITH E3 LIGASE LIGAND AND METHODS OF USE” (BEIGENE, LTD., priority 2020, published 2023).

Each molecule was assayed against T1, EGFR L858R/T790M/C797S (Homo sapiens, UniProt P00533, C797S/L858R/T790M) (assay: EGFR degradation HTRF assay in BaF3-LTC cells). Settings: BaF3-LTC (L858R/T790M/C797S), maximum percentage of inhibition (degradation); read-out: BaF3-LTC Dmax (%).
T1 construct: expressed in transfected cells; host or cells: BaF3-LTC
Format: cell-based
Description: BaF3-LTC(L858R/T790M/C797S) cells and BaF3 LC(L858R/C797S) cells are treated with compounds diluted in 0.2% DMSO cell culture medium and incubate for 16 h, 37° C., 5% CO2. the final concentration of compounds in all assay is start with 10 uM, 5-fold dilution, total 8 doses were included.
After 16 h treatment, add HTRF lysis buffer to each well; seal the plate and incubate 1 hour at room temperature on a plate shaker; Once the cells are lysed, 16 μL of cell lysate are transferred to a PE 384-well HTRF detection plate; 4 μL of pre-mixed HTRF antibodies are added to each well; Cover the plate with a plate sealer, spin 1000 rpm for 1 min, Incubate overnight at room temperature; Read on BMG PheraStar with HTRF protocol (337 nm-665 nm-620 nm).
The inhibition (degradation) percentage of the compound was calculated by the following equation: Inhibition percentage of Compound=100−100×(Signal−low control)/(High control−low control), wherein signal=each test compound group
High control=Cell group with added DMSO and without compound, indicating microplate readings without EGFR degradation;
Dmax is the maximum percentage of inhibition (degradation).
The IC50 (DC50) value of a compound can be obtained by fitting the following equation
Y=Bottom+(TOP−Bottom)/(1+((IC50/X)^hillslope))
Wherein, X and Y are known values, and IC50, Hillslope, Top and Bottom are the parameters obtained by fitting with software. Y is the inhibition percentage (calculated from the equation), X is the concentration of the compound; IC50 is the concentration of the compound when the 50% inhibition is reached. The smaller the IC50 value is, the stronger the inhibitory ability of the compound is. Vice versa, the higher the IC50 value is, the weaker the inhibitory ability of the compound is; Hillslope represents the slope of the fitted curve, generally around 1*; Bottom represents the minimum value of the curve obtained by data fitting, which is generally 0%±20%; Top represents the maximum value of the curve obtained by data fitting, which is generally 100%±20%. The experimental data were fitted by calculating and analyzing with Dotmatics data analysis software.

T1 sequence (P00533 25-1210 T790M/C797S/L858R): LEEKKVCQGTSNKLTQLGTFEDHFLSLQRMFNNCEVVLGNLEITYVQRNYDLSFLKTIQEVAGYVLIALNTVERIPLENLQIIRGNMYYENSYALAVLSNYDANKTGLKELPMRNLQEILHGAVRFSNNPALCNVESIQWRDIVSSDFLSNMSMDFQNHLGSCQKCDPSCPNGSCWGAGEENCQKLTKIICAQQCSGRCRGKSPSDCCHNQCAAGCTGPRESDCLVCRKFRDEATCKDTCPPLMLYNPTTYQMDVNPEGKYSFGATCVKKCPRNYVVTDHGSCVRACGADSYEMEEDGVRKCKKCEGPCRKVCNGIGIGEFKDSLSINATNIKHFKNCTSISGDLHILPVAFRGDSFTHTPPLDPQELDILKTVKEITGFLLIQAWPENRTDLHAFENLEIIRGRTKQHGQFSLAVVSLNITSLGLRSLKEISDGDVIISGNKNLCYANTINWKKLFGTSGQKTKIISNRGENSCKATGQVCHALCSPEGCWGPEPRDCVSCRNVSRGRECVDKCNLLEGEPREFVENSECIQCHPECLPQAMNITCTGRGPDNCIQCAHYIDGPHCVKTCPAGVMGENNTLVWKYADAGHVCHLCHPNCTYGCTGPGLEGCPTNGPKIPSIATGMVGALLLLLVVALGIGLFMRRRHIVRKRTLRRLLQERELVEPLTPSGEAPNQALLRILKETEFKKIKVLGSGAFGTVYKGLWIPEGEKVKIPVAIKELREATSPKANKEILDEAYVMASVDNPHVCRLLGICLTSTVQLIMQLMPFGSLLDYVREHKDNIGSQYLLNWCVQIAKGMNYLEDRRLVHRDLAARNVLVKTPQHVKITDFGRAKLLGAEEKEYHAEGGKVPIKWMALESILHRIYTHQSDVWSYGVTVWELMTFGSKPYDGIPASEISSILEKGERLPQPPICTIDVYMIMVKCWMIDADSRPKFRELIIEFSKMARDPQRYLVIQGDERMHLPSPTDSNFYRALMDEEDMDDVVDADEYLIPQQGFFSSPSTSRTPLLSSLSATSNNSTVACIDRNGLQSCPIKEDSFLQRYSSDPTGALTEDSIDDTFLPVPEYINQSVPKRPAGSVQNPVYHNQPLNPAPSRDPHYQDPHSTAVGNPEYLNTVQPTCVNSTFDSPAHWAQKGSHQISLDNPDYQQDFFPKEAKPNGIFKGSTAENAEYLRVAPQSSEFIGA

Row | Structure (SMILES) | Dmax [%]
1 | CCOc1cc(N2CCC(N3CCN(CCc4cc(F)c([C@H]5CCC(=O)NC5=O)c(F)c4)CC3)CC2)c(CC)cc1Nc1ncc(Br)c(Nc2ccc3nc(C)ncc3c2P(C)(C)=O)n1 [Example 738, (R)-3-(4-(2-(4-(1-(4-((5-bromo-4-((5-(dimethylphosphoryl)-2-methylquinazolin-6-yl)amino)pyrimidin-2-yl)amino)-5-ethoxy-2-ethylphenyl)piperidin-4-yl)piperazin-1-yl)ethyl)-2,6-difluorophenyl)piperidine-2,6-dione] | 95.7
2 | CCOc1cc(N2CCC(N3CCN(CCc4cc(F)c([C@H]5CCC(=O)NC5=O)c(F)c4)CC3)CC2)c(CC)cc1Nc1ncc(Br)c(Nc2ccc3nc(C)c(F)cc3c2P(C)(C)=O)n1 [Example 728, (R)-3-(4-(2-(4-(1-(4-((5-bromo-4-((5-(dimethylphosphoryl)-3-fluoro-2-methylquinolin-6-yl)amino)pyrimidin-2-yl)amino)-5-ethoxy-2-ethylphenyl)piperidin-4-yl)piperazin-1-yl)ethyl)-2,6-difluorophenyl)piperidine-2,6-dione] | 95.3
3 | CCOc1cc(N2CCC(N3CCN(CCc4c(F)ccc5c4n(CC)c(=O)n5C4CCC(=O)NC4=O)CC3)CC2)c(CC)cc1Nc1ncc(Br)c(Nc2ccc3nc(CC)ccc3c2P(C)(C)=O)n1 (stereo not drawn) [Example 558, 3-(4-(2-(4-(1-(4-((5-bromo-4-((5-(dimethylphosphoryl)-2-ethylquinolin-6-yl)amino)pyrimidin-2-yl)amino)-5-ethoxy-2-ethylphenyl)piperidin-4-yl)piperazin-1-yl)ethyl)-3-ethyl-5-fluoro-2-oxo-2,3-dihydro-1H-benzo[d]imidazol-1-yl)piperidine-2,6-dione] | 95.9
4 | CCOc1cc(N2CCC(N3CCN(CCc4c(F)cc(F)c5c4oc(=O)n5C4CCC(=O)NC4=O)CC3)CC2)c(CC)cc1Nc1ncc(Br)c(Nc2ccc3nc(CC)ccc3c2P(C)(C)=O)n1 (stereo not drawn) [Example 731, 3-(7-(2-(4-(1-(4-((5-bromo-4-((5-(dimethylphosphoryl)-2-ethylquinolin-6-yl)amino)pyrimidin-2-yl)amino)-5-ethoxy-2-ethylphenyl)piperidin-4-yl)piperazin-1-yl)ethyl)-4,6-difluoro-2-oxobenzo[d]oxazol-3(2H)-yl)piperidine-2,6-dione] | 80.3
5 | CCOc1cc(N2CCC(N3CCN(CCc4c(F)ccc5c4n(C)c(=O)n5C4CCC(=O)NC4=O)CC3)CC2)c(CC)cc1Nc1ncc(Br)c(Nc2ccc3nc(CC)ncc3c2P(C)(C)=O)n1 (stereo not drawn) [Example 736, 3-(4-(2-(4-(1-(4-((5-bromo-4-((5-(dimethylphosphoryl)-2-ethylquinazolin-6-yl)amino)pyrimidin-2-yl)amino)-5-ethoxy-2-ethylphenyl)piperidin-4-yl)piperazin-1-yl)ethyl)-5-fluoro-3-methyl-2-oxo-2,3-dihydro-1H-benzo[d]imidazol-1-yl)piperidine-2,6-dione] | 97
6 | CCc1cc(Nc2ncc(Br)c(Nc3ccc4nc(C)ncc4c3P(C)(C)=O)n2)c(OC)cc1N1CCC(N2CCN(C(=O)[C@H]3CN(c4cc(F)c([C@H]5CCC(=O)NC5=O)c(F)c4)CC3(C)C)CC2)CC1 [Example 740, (R)-3-(4-((R)-4-(4-(1-(4-((5-bromo-4-((5-(dimethylphosphoryl)-2-methylquinazolin-6-yl)amino)pyrimidin-2-yl)amino)-2-ethyl-5-methoxyphenyl)piperidin-4-yl)piperazine-1-carbonyl)-3,3-dimethylpyrrolidin-1-yl)-2,6-difluorophenyl)piperidine-2,6-dione] | 97.2
7 | CCOc1cc(N2CCC(N3CCN(CCc4cc(F)c([C@H]5CCC(=O)NC5=O)c(F)c4)CC3)CC2)c(CC)cc1Nc1ncc(C)c(Nc2cc(F)c3nc(CC)ccc3c2P(C)(C)=O)n1 [Example 733, (R)-3-(4-(2-(4-(1-(4-((4-((5-(dimethylphosphoryl)-2-ethyl-8-fluoroquinolin-6-yl)amino)-5-methylpyrimidin-2-yl)amino)-5-ethoxy-2-ethylphenyl)piperidin-4-yl)piperazin-1-yl)ethyl)-2,6-difluorophenyl)piperidine-2,6-dione] | 89.5
8 | CCOc1cc(N2CCC(N3CCN(C(=O)[C@H]4CN(c5cc(F)c([C@H]6CCC(=O)NC6=O)c(F)c5)CC4(C)C)CC3)CC2)c(C)cc1Nc1ncc(Br)c(Nc2ccc3nc(C)ccc3c2P(C)(C)=O)n1 [Example 727, (R)-3-(4-((R)-4-(4-(1-(4-((5-bromo-4-((5-(dimethylphosphoryl)-2-methylquinolin-6-yl)amino)pyrimidin-2-yl)amino)-5-ethoxy-2-methylphenyl)piperidin-4-yl)piperazine-1-carbonyl)-3,3-dimethylpyrrolidin-1-yl)-2,6-difluorophenyl)piperidine-2,6-dione] | 97.5
9 | COc1cc(N2CCC(N3CCN(C(=O)[C@@H]4CCN(c5cc(F)c([C@H]6CCC(=O)NC6=O)c(F)c5)C4)CC3)CC2)c(C)cc1Nc1ncc(Br)c(Nc2ccc3nc(C)c(F)cc3c2P(C)(C)=O)n1 [Example 732, (R)-3-(4-((R)-3-(4-(1-(4-((5-bromo-4-((5-(dimethylphosphoryl)-3-fluoro-2-methylquinolin-6-yl)amino)pyrimidin-2-yl)amino)-5-methoxy-2-methylphenyl)piperidin-4-yl)piperazine-1-carbonyl)pyrrolidin-1-yl)-2,6-difluorophenyl)piperidine-2,6-dione] | 95.5
10 | CCOc1cc(N2CCC(N3CCN(CCc4cccc5c4n(CC)c(=O)n5C4CCC(=O)NC4=O)CC3)CC2)c(CC)cc1Nc1ncc(Br)c(Nc2ccc3nc(CC)ncc3c2P(C)(C)=O)n1 (stereo not drawn) [Example 737, 3-(4-(2-(4-(1-(4-((5-bromo-4-((5-(dimethylphosphoryl)-2-ethylquinazolin-6-yl)amino)pyrimidin-2-yl)amino)-5-ethoxy-2-ethylphenyl)piperidin-4-yl)piperazin-1-yl)ethyl)-3-ethyl-2-oxo-2,3-dihydro-1H-benzo[d]imidazol-1-yl)piperidine-2,6-dione] | 97.7

The next lines start with the values.

Row | Dmax [%] | Structure (SMILES)
11 | 96.6 | CCc1cc(Nc2ncc(Br)c(Nc3ccc4nc(C5CC5)ccc4c3P(C)(C)=O)n2)c(OC)cc1N1CCC(N2CCN(CCc3cc(F)c([C@H]4CCC(=O)NC4=O)c(F)c3)CC2)CC1 [Example 741, (R)-3-(4-(2-(4-(1-(4-((5-bromo-4-((2-cyclopropyl-5-(dimethylphosphoryl)quinolin-6-yl)amino)pyrimidin-2-yl)amino)-2-ethyl-5-methoxyphenyl)piperidin-4-yl)piperazin-1-yl)ethyl)-2,6-difluorophenyl)piperidine-2,6-dione]
12 | 95.5 | CCOc1cc(N2CCC(N3CCN(C(=O)[C@H]4CN(c5cc(F)c([C@H]6CCC(=O)NC6=O)c(F)c5)CC4(C)C)CC3)CC2)c(CC)cc1Nc1ncc(Br)c(Nc2cc(F)c3nc(CC)ccc3c2P(C)(C)=O)n1 [Example 746, (R)-3-(4-((R)-4-(4-(1-(4-((5-bromo-4-((5-(dimethylphosphoryl)-2-ethyl-8-fluoroquinolin-6-yl)amino)pyrimidin-2-yl)amino)-5-ethoxy-2-ethylphenyl)piperidin-4-yl)piperazine-1-carbonyl)-3,3-dimethylpyrrolidin-1-yl)-2,6-difluorophenyl)piperidine-2,6-dione]
13 | 93.6 | CCc1ncc2c(P(C)(C)=O)c(Nc3nc(Nc4cc(C)c(N5CCC(N6CCN(CCc7cc(F)c([C@H]8CCC(=O)NC8=O)c(F)c7)CC6)CC5)cc4OC)ncc3Br)ccc2n1 [Example 748, (R)-3-(4-(2-(4-(1-(4-((5-bromo-4-((5-(dimethylphosphoryl)-2-ethylquinazolin-6-yl)amino)pyrimidin-2-yl)amino)-5-methoxy-2-methylphenyl)piperidin-4-yl)piperazin-1-yl)ethyl)-2,6-difluorophenyl)piperidine-2,6-dione]
14 | 94.6 | CCc1cc(Nc2ncc(Br)c(Nc3ccc4nccnc4c3P(C)(C)=O)n2)c(OC)cc1N1CCC(N2CCN(CCc3cc(F)c([C@H]4CCC(=O)NC4=O)c(F)c3)CC2)CC1 [Example 751, (R)-3-(4-(2-(4-(1-(4-((5-bromo-4-((5-(dimethylphosphoryl)quinoxalin-6-yl)amino)pyrimidin-2-yl)amino)-2-ethyl-5-methoxyphenyl)piperidin-4-yl)piperazin-1-yl)ethyl)-2,6-difluorophenyl)piperidine-2,6-dione]
15 | 96.2 | CCOc1cc(N2CCC(N3CCN(C(=O)[C@H]4CN(c5cc(F)c([C@H]6CCC(=O)NC6=O)c(F)c5)CC4(C)C)CC3)CC2)c(CC)cc1Nc1ncc(Br)c(Nc2ccc3nc(C)ccc3c2P(C)(C)=O)n1 [Example 747, (R)-3-(4-((R)-4-(4-(1-(4-((5-bromo-4-((5-(dimethylphosphoryl)-2-methylquinolin-6-yl)amino)pyrimidin-2-yl)amino)-5-ethoxy-2-ethylphenyl)piperidin-4-yl)piperazine-1-carbonyl)-3,3-dimethylpyrrolidin-1-yl)-2,6-difluorophenyl)piperidine-2,6-dione]
